Measurements reported in publication PMC10451623 (Antioxidants, 2023).

Tests used:
[1] = biological target: T1, human PPARγ (Homo sapiens, UniProt P37231); assay: Transactivation assay (GAL4–hPPARγ-LBD chimera, luciferase reporter, COS-7 cells); type: cell-based; conditions: for Emax: 100% = 1 µM GW1929, read-out: Efficacy, PPARγ transactivation (% of the maximal response); for EC50: GAL4–hPPARγ-LBD
T1 construct: expressed in transfected cells; host or cells: COS-7
T1 sequence (P37231 238-503 limits assumed): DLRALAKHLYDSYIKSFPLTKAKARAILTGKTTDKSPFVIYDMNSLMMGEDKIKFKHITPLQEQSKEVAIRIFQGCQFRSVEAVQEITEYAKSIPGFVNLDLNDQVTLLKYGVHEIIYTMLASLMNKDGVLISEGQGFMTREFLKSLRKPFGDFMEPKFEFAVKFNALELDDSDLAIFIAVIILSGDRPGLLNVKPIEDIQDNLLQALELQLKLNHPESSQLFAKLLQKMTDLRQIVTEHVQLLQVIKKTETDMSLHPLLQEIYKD
Method: The pSG5-GAL–hPPARα/δ/γ plasmids express fusion proteins comprising the yeast transcription factor GAL4 DNA-binding domain and each of the human PPARα/δ/γ-LBDs. The MH100(UAS)×4-tk-Luc plasmid contains four copies of the MH100 GAL4 binding site and the Firefly luciferase gene. The cells were transfected with those plasmids and were treated with various PPAR ligands, and both Firefly and Renilla luciferase activities were measured using the Dual-Glo Luciferase Assay System (Promega, Madison, WI, USA) as described previously. […] GW1929 was purchased from Sigma-Aldrich (St. Louis, MO, USA).
For the undertaking of the comparison of the potency, efficacy, and selectivity of the five PPAR ligands (Figure 1A) against the PPAR subtypes, we evaluated their PPARα/δ/γ activation using three different methods: a cell-based transactivation assay, a coactivator recruitment assay, and a thermal stability assay, as we previously performed on three fibrates (namely, bezafibrate, fenofibric acid, and pemafibrate). The cell-based transactivation assay utilizing the Gal4–PPAR-LBD system is the most widely used method for the determination of PPAR activation by certain ligands, although their responses depend on the used cell types in which several coactivators with altered functions are differentially expressed.
Figure 1 LBD-mediated human PPARα/δ/γ transactivation by PPAR ligands. (A) Chemical structures of the five PPAR ligands used in this study. […] Data are presented as the mean ± standard error (SE) of three independent experiments with duplicate samples.

[2] = biological target: T2, PPARδ-LBD (Homo sapiens, UniProt Q03181); assay: TR-FRET SRC1 coactivator recruitment assay; type: biochemical; set-up: PPARδ-LBD (amino acids 170–441); made in house; host or cells: Rosetta (DE3) pLysS (E. coli); conditions: for EC50: TR-FRET, SRC1 peptide, read-out: EC50, SRC1 recruitment to PPARδ-LBD
T2 sequence (Q03181 170-441): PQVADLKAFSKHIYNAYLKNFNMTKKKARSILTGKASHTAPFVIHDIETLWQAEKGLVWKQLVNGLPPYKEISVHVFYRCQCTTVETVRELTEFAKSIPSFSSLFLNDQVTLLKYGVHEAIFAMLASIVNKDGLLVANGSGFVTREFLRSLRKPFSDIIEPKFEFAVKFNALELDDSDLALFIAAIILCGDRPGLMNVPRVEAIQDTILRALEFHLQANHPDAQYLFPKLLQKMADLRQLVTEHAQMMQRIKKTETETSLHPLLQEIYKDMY
Method: (§1) Subsequently, 5 µL of 4 nM Eu-W1024-labeled anti-6×His antibody/80 nM ULight-Streptavidin (PerkinElmer) was added to each well, and the microplate was incubated in the dark for 2 h, at room temperature. […] The nonlinear fitting and the calculation of the EC50 were performed using the Prism 9 software (GraphPad, San Diego, CA, USA).
(§2) The ligand-bound activated forms of PPARs are stabilized by associations with specific coactivators, thereby enabling the regulation of specific gene expression.
(§3) Figure 2 TR-FRET-based LBD-mediated human PPARα/δ/γ coactivator recruitment assay. […] Data are presented as the mean ± SE of three or four independent experiments with duplicate samples, and the calculated EC50 values are shown.

[3] = biological target: T3, PPARα-LBD (Homo sapiens, UniProt Q07869); assay: TR-FRET SRC1 coactivator recruitment assay; type: biochemical; set-up: Human PPARα-LBD (amino acids 200–468); made in house; host or cells: Rosetta (DE3) pLysS (E. coli); conditions: for EC50: TR-FRET, SRC1 peptide, read-out: EC50, SRC1 recruitment to PPARα-LBD
T3 sequence (Q07869 200-468): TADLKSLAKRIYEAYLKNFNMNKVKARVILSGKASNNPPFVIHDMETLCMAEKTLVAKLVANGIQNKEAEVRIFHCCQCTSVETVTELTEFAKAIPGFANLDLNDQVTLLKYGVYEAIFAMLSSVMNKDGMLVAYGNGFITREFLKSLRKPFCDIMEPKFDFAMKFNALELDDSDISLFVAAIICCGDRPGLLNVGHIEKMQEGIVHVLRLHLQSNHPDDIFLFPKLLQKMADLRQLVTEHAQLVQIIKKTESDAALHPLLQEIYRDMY
Method: as §1, §2, §3

[4] = biological target: T2, PPARδ-LBD; assay: Thermal stability assay using circular dichroism spectroscopy; type: binding; set-up: PPARδ-LBD (amino acids 170–441); His tag (pET28a) (N); made in house; host or cells: Rosetta (DE3) pLysS (E. coli); conditions: CD at 222 nm; 10 µM LBD; GW501516 at 50 µM
Method: PPARα/δ/γ-LBD proteins (10 µM) were incubated with different concentrations of ligands in buffer C consisting of 20 mM Tris-HCl (pH 8.0), 150 mM NaCl, 1 mM Tris 2-carboxyethylphosphine (TCEP)-HCl, and 10% glycerol. The circular dichroism (CD) spectra were monitored within a 200–260 nm range at increasing temperatures from 30 °C to 70 °C (2 °C/min) using a J-1500 spectropolarimeter equipped with a PTC-510 thermal controller (JASCO, Tokyo, Japan). […] The ligand-induced increases in the Tm values were defined as ∆Tm.
Nuclear receptors, including PPARs, display an increased thermal stability upon ligand binding, which is detectable through CD spectroscopy.
Figure 3 Circular dichroism-based PPARα/δ/γ-LBD thermal stability assay. […] Data are presented as the mean ± SE of three or four (in parentheses) independent experiments. Differences vs. basal levels (with 0.1% DMSO) were statistically assessed by one-way ANOVA, followed by a Dunnett’s post hoc test: * p < 0.05, ** p < 0.01, and *** p < 0.001.

Compound	Emax [1]	EC50 [1]	EC50 [2]	EC50 [3]	Effect on Tm of PPARδ-LBD (in words) [4]	Efficacy, SRC1 recruitment to PPARα-LBD ([3]; 100% = 1 µM GW7647)	Efficacy, SRC1 recruitment to PPARδ-LBD ([2]; 100% = 1 µM GW501516)
CCO[C@@H](Cc1ccc(OCCn2c(C)ccc2-c2ccc(SC)cc2)cc1)C(=O)O [saroglitazar]	89.4%	311 nM	> 100000 nM	1040 nM	highly increased the Tm values		
CSc1ccc(C(=O)/C=C/c2cc(C)c(OC(C)(C)C(=O)O)c(C)c2)cc1 [elafibranor]	38.5%	2120 nM		4950 nM	did not significantly alter the Tm values	59.2%	
CCO[C@H](COc1ccc(C(F)(F)F)cc1)CSc1ccc(OCC(=O)O)c(C)c1 [seladelpar]	58.5%	3530 nM	111 nM	> 1000 nM	increased the Tm values		83.0%
O=C(O)CCCc1cc2cc(Cl)ccc2n1S(=O)(=O)c1ccc2ncsc2c1 [lanifibranor]	24.9%	572 nM	4440 nM	13800 nM	increased the Tm values		
